Data: ChEMBL document CHEMBL1201862, “PubChem BioAssay data set” (2004)
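Values below derive from 48-hour exposures of cells grown in 96-well plates, with endpoints linearly interpolated between the two concentrations bracketing the appropriate inhibition level. The concentration for 50% growth inhibition is given as GI50.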 Active and inactive are the calls of the source. Rule as the data show it: active = GI50 up to about 1.1 µM and inactive = higher.

Key:
Experiment in all cases: inhibition of tumour cell growth, NCI panel, 48 h
[1] = test system: HOP-62
[2] = test system: SNB-75
[3] = test system: DU-145
[4] = test system: SK-OV-3
[5] = test system: NCI-H23
[6] = test system: SF-295
[7] = test system: TK-10
[8] = test system: NCI-H522
[9] = test system: SK-MEL-2
[10] = test system: SN12C
[11] = test system: BT-549
[12] = test system: NCI-H226
[13] = test system: HL-60
[14] = test system: A498
[15] = test system: CCRF-CEM
[16] = test system: SK-MEL-5
[17] = test system: NCI-H460
[18] = test system: OVCAR-5
[19] = test system: HT-29
[20] = test system: Malme-3M

Compound	GI50 [1]	GI50 [2]	GI50 [3]	GI50 [4]	GI50 [5]	GI50 [6]	GI50 [7]	GI50 [8]	GI50 [9]	GI50 [10]	GI50 [11]	GI50 [12]	GI50 [13]	GI50 [14]	GI50 [15]	GI50 [16]	GI50 [17]	GI50 [18]	GI50 [19]	GI50 [20]
C[C@]12CC[C@H]3[C@@H](CC[C@]4(O)C[C@@H](O)CC[C@]34C=O)[C@@]1(O)CC[C@@H]2C1=CC(=O)OC1 [STROPHANTHIDIN]	0.159 µM (active)	1.14 µM (inactive)	0.284 µM (active)	0.568 µM (active)	0.265 µM (active)	0.457 µM (active)	0.465 µM (active)	0.0942 µM (active)	1.61 µM (inactive)	0.418 µM (active)	0.355 µM (active)	1.23 µM (inactive)	0.347 µM (active)	0.562 µM (active)	0.488 µM (active)	0.288 µM (active)	0.195 µM (active)	1.42 µM (inactive)	0.406 µM (active)	0.435 µM (active)
O=C1CCC(c2ccccc2)(c2ccccc2)CC1	> 100 µM (inactive)	> 100 µM (inactive)	> 100 µM (inactive)	> 100 µM (inactive)	57.7 µM (inactive)	> 100 µM (inactive)	85.9 µM (inactive)	71.3 µM (inactive)	> 100 µM (inactive)	38.1 µM (inactive)	83.2 µM (inactive)	36.6 µM (inactive)	33.5 µM (inactive)	> 100 µM (inactive)	19.8 µM (inactive)	30.7 µM (inactive)	> 100 µM (inactive)	> 100 µM (inactive)	55.5 µM (inactive)	> 100 µM (inactive)
